Measured values as given in US10179777B2, “3-(1H-benzimidazol-2-yl)-1H-pyridin-2-one derivatives” (MERCK PATENT GMBH, priority 2015, dated 2019).
Structures can show the parent of a compound that is named as a salt.

Tests used:
[1] = target: T1, ALK2 (GST-modified kinase domain ACVR1(145-509)) (Homo sapiens, UniProt Q04771); assay: ALK2 kinase inhibition assay (33P-ATP filter binding, Reaction Biology); type: biochemical; settings: casein substrate, 20 μM ATP (Km ATP), 120 min ambient temperature
T1 construct: N-terminally GST-modified kinase domain ACVR1(145-509); GST (N)
T1 sequence (Q04771 145-509): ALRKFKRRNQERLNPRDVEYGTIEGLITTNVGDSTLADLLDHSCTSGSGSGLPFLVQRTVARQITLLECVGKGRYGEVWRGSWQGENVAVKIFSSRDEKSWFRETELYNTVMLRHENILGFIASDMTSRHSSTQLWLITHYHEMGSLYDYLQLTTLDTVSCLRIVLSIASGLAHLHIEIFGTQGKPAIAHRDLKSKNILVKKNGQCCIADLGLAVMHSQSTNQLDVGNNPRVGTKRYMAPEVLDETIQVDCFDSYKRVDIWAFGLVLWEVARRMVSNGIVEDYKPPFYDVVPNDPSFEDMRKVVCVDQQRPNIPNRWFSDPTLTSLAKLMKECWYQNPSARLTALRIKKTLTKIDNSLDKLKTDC
Outline: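 Human ACVR1(145-509) kinase domain, N-terminal GST-tagged, with 1 mg/ml casein substrate and 33P-ATP in 20 mM HEPES pH 7.5, 10 mM MgCl2, 1 mM EGTA, 2 mM DTT, 1% DMSO. Incubated 120 min at ambient temperature, then spotted on P81 filters and washed. Background-subtracted activity taken as % of DMSO control; IC50 from curve fit.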

[2] = target: T2, ALK5 (TGFβR1; GST-modified TGFBR1 (200-503)) (Homo sapiens, UniProt P36897); assay: ALK5 kinase inhibition assay (33P-ATP filter binding, Reaction Biology); type: biochemical; settings: casein substrate, 200 μM ATP
T2 construct: Using GST-Modified TGFBR1 (200-503); GST
T2 sequence (P36897 200-503): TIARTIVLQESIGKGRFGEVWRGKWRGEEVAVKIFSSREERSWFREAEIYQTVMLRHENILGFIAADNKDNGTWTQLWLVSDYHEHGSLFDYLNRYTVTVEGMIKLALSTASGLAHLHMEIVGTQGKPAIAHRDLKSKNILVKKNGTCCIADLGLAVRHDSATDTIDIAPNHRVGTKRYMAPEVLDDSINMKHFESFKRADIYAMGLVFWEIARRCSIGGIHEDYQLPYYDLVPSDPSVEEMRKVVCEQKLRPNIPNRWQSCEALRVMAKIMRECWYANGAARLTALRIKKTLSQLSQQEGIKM
Experimental: The protein sequences of the kinases targeted and accompanying information are described in publically available data base http://www.uniprot.org/uniprot/for ALK1 www.uniprot.org/uniprot/P37023, for ALK2 www.uniprot.org/uniprot/Q04771 and for ALK5 www.uniprot.org/uniprot/P36897. IC50 determination of the novel inhibitors described was performed at Reaction Biology Corp., Malvern, Pa., USA, with assay conditions open to public at www.reactionbiology.com/webapps/site/KinaseDetail.aspx?page=Kinases&id=1, and www.reactionbiology.com/webapps/site/Kinase Assay Protocol.aspx. In addition, they were specified previously in Anastassiadis et al. Nat. Biotechnol. 29(11): 1039-1045. doi:10.1038/nbt.2017.
A3) ALK5 Kinase Inhibition Assay Was Performed Similar to Procedures A1 and A2 Using GST-Modified TGFBR1 (200-503) and 1 mg/ml Casein as Substrate at 200 μM ATP.

[3] = target: T3, ALK1 (GST-modified kinase domain ACVRL1 (139-503)) (Homo sapiens, UniProt P37023); assay: ALK1 kinase inhibition assay (33P-ATP filter binding, Reaction Biology); type: biochemical; settings: casein substrate, 100 μM ATP (Km ATP), 120 min ambient temperature
T3 construct: N-terminally GST-modified kinase domain ACVRL1 (139-503); GST (N)
T3 sequence (P37023 139-503): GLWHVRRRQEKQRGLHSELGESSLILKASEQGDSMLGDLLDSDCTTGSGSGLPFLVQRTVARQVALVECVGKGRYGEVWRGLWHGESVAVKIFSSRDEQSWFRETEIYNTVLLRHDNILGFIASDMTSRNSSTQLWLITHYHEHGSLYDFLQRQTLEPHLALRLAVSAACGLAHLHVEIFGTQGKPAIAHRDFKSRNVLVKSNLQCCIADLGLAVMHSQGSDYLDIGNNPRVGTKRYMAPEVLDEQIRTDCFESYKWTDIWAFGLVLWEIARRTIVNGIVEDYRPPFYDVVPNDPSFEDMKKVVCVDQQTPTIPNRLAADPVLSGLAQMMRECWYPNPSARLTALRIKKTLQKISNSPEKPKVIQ
Outline: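 GST-tagged kinase domain with 20 mg/ml casein substrate in 20 mM HEPES pH 7.5, 10 mM MgCl2, 1 mM EGTA, 2 mM DTT, 1% DMSO; 120 min at ambient temperature. Phosphorylation read by P81 filter binding; background-subtracted activity as percent of DMSO vehicle, curve-fit for IC50.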

[4] = tested on: ALK1-mediated SMAD1/5 phosphorylation in HUVEC cells; assay: Cell-based immunofluorescence assay for ALK1-mediated SMAD1/5 phosphorylation in HUVEC cells; settings: Homo sapiens, 1.5 ng/ml BMP-9 with compound for 2 h, % nuclei with pSMAD1/5 signal, read-out: Smad 1/5 IC50
Outline: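 Serum-starved primary HUVEC (≤5 passages) were treated with compound (1 nM-30 μM, 10 doses, 0.5% DMSO) plus 1.5 ng/ml BMP-9 for 2 h at 37° C. Cells were then fixed and immunostained for phospho-Smad1/5 (Ser463/465), and % positive nuclei were counted by confocal imaging. Data were normalised to DMSO (0%) and 10 μM reference inhibitor (−100%).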

| Structure (SMILES) | IC50 [1] | IC50 [2] | IC50 [3] | IC50 [4] |
| --- | --- | --- | --- | --- |
| O=c1[nH]cc(-c2cccc(CO)c2F)cc1-c1nc2cc(N3CCNCC3)ccc2[nH]1 [Compound A23, 5-(2-Fluoro-3-hydroxymethyl-phenyl)-3-(5-piperazin-1-yl-1H-benzimidazol-2-yl)-1H-pyridin-2-one] | 22 nM | 1600 nM | 2 nM | 130 nM |
| O=c1[nH]cc(-c2ccnc3[nH]ccc23)cc1-c1nc2cc(N3CCCCC3)ccc2[nH]1 [Compound A43, 3-(5-Piperidin-1-yl-1H-benzimidazol-2-yl)-5-(1H-pyrrolo[2,3-b]pyridin-4-yl)-1H-pyridin-2-one] | 37 nM | 870 nM | 45 nM | 1800 nM |
| CN(C)C1CCN(c2ccc3[nH]c(-c4cc(-c5cccc(CO)c5)c[nH]c4=O)nc3c2)CC1 [Compound A36, 3-[5-(4-Dimethylamino-piperidin-1-yl)-1H-benzimidazol-2-yl]-5-(3-hydroxymethyl-phenyl)-1H-pyridin-2-one formate] | 22 nM | 1100 nM | 2.9 nM | 240 nM |
